Tested on: cardiac stomach preparations
Assay: In vitro contraction of cardiac stomach preparations
Design: species or system Asterias rubens
Details: words, ArBN 10^-9 to 10^-6 M
Description: ArBN (EPRRNYNRVFGPTY-NH2), ArBN5-14 (NYNRVFGPTY-NH2), and ArBNP65-81 (EPMPSSLALYIANLSP-NH2), were tested for effects on in vitro cardiac stomach and tube foot preparations from A. rubens. The preparations were dissected as described previously ([43], [59]–[61]), with the organs immersed in ice-cold artificial seawater during dissection. A description of the methods employed for investigation of in vitro effects of ArBN on cardiac stomach and tube foot preparations from A. rubens is included in SI Appendix, SI Methods. […]
Wax was removed from slides using xylene (3 × 10 min) and then slides were immersed in 100% ethanol (2 × 10 min). 0.3% hydrogen peroxide (VWR Chemicals, UK) in methanol was used to quench endogenous peroxidases for 30 min and then an ethanol series (90%, 70%, 50%), distilled water and PBST were used to rehydrate the tissue sections. 5% goat serum (Sigma-Aldrich, UK) made up in PBST was used for blocking for 2 h at room temperature. […]
All the dissected preparations were set up in an aerated organ bath filled with 20 ml artificial seawater maintained at approximately 11°C. Changes in the contractile state of preparations were detected by the transducer, which was linked via a bridge amplifier (FE221 Bridge Amp, ADInstruments Ltd, Oxford, UK) to data acquisition hardware (PowerLab 2/36, ADInstruments Ltd, Oxford, UK). […]

Substance	effect on cardiac stomach preparations
EPMPSSLALYIANLSP-NH2 [ArBNP65-81, C-terminally amidated 16-residue peptide predicted to be derived from residues 65 to 81 of ArBNP]	neither ArBN5-14 nor ArBNP65-81 had any observable effect
NYNRVFGPTY-NH2 [ArBN5-14, C-terminally amidated 10-residue peptide corresponding to the C-terminal region of ArBN]	neither ArBN5-14 nor ArBNP65-81 had any observable effect
